Reference: PubChem BioAssay AID2060485 (Molecular Pharmacology Branch, DTP, NCI, 2025)

System: A375 multi-cell spheroids with HUVEC/MSC, viability
Assay: Anticancer human tumor A375 cell line growth inhibition [GQUAD];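 note: spheroids exposed to compounds for seven days before readout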
Conditions: for IC50: curve of first compound; for viability, T/C: stronger effect = lower value
Excerpt: DNA G-quadruplex Stabilizer Agents in Combinations in Complex Spheroids
A high-throughput screen of multi-cell type tumor spheroids was designed to identify active combinations of DNA G-quadruplex stabilizer agents and targeted small molecules. Complex spheroids include a stromal component modeled by human endothelial cells (HUVEC) and fibroblasts modeled by human mesenchymal stem cells (MSCs). The concentration ranges selected for each drug and investigational agent were based upon clinically achievable concentrations if the clinical Cmax of the agent was known.
Compounds. The drugs and investigational agents: pidnarulex (CX-5461; NSC782164), APTO-253 (NSC789042), BRACO-19 (NSC847499), peposertib (NSC802822), ceralasertib (NSC780249), elimusertib (NSC800525), camonsertib (NSC841442), AZD-1390 (NSC803789), olaparib (NSC753686), talazoparib (NSC767125), ART-558 (NSC835418), sotorasib (NSC818433), MRTX-1133 (NSC836407), SN-38 (NSC673596), topotecan (NSC609699), etoposide (NSC141540), doxorubicin (NSC123127), gemcitabine (NSC613327), 5-fluorouracil (NSC19893), paclitaxel (NSC125973), vemurafenib (NSC761431), panobinostat (NSC761190), R-306465 (JNJ-16241199; NSC773264), adavosertib (NSC754352), TP-3654 (NSC805149), carboplatin (NSC241240), KSQ-4279 (NSC840948), and staurosporine (NSC755774) were obtained from the National Cancer Institute (NCI) Developmental Therapeutics Program Chemical Repository (34). The FDA-approved anticancer drug set is available from the NCI Developmental Therapeutics Program. […] The stock solutions were prepared in dimethyl sulfoxide (DMSO, Sigma-Aldrich, St. Louis, MO, cat. D2650) at 800-fold the tested concentration and stored at -70 degrees C prior to their use. All drugs and investigational agents were tested over a range starting from a high concentration at or near the clinical Cmax and decreasing in half-log increments. If the clinical Cmax for an agent had not been determined, the highest concentration tested was 10 microM.
2.3 Cell Culture. All cells were maintained in an incubator at 37 degrees C and 5% CO2 with 95% humidity. The PDC lines were cultured according to standard operating procedures established by the NCI PDMR. All PDCs were thawed and cultured in Matrigel-coated flasks prepared with a working solution of 1X Ham's F-12 nutrient mix, without supplementation (Invitrogen, cat. 11765054), 100 U/mL penicillin-streptomycin (Invitrogen, cat. 15140122), and 2.5% Matrigel (Corning Inc., cat. 354248) for the first three passages. The 857933-349-R-J2-PDC line was cultured in 6C/Colon 1B media, which includes advanced DMEM/F-12 (Thermo Fisher Scientific, cat. 12634028), 10 mM HEPES (Thermo Fisher Scientific, cat. 15630080), 1X GlutaMAX supplement (Thermo Fisher Scientific, cat. 35050061), 0.1 mg/mL primocin (InvivoGen, cat. ant-pm-2), 10% defined fetal bovine serum, heat inactivated (HyClone Laboratories Inc., cat. SH30070.03HI), 50% L-WRN conditioned media (ATCC, cat. CRL-3276), 1.25 mM N-Acetyl-L-cysteine (Sigma-Aldrich, cat. A9165), 10 mM nicotinamide (Sigma-Aldrich, cat. N0636), 1X B-27 supplement (Thermo Fisher Scientific, cat. 17504044), 1X N-2 supplement (Thermo Fisher Scientific, cat. 17502048), 10 microM Y-27632 dihydrochloride (Tocris Bioscience, cat. 1254), and 50 ng/mL human EGF recombinant protein (Thermo Fisher Scientific, cat. PHG0311). The 485176-168-R4-J1-PDC line was cultured in Panc media, which includes all 6C/Colon 1B media components plus 100 ng/mL human FGF-10 (Thermo Fisher Scientific, cat. 100-26), 500 nM SB-431542 (Selleckchem, cat. S1067), and gastrin (Tocris, cat. 3006).
[…]

CC(=O)O[C@H]1C(=O)[C@@]2(C)[C@H]([C@H](OC(=O)c3ccccc3)[C@]3(O)C[C@H](OC(=O)[C@H](O)[C@@H](NC(=O)c4ccccc4)c4ccccc4)C(C)=C1C3(C)C)[C@]1(OC(C)=O)CO[C@@H]1C[C@@H]2O + Cc1cnc(CNC(=O)c2c(=O)c3ccc(N4CCCN(C)CC4)nc3n3c2sc2ccccc23)cn1
IC50 (second compound 0.0316 µM): 0.0642 µM
IC50 (second compound 0.1 µM): 0.0361 µM
IC50 (second compound 0.316 µM): < 0.0316 µM
IC50 (second compound 1 µM): < 0.0316 µM
IC50 (second compound 3.16 µM): < 0.0316 µM
IC50 (second compound 10 µM): < 0.0316 µM
viability, T/C (second compound 0.0316 µM, first compound 0.0316 µM): 77.3%
viability, T/C (second compound 0.0316 µM, first compound 0.1 µM): 33%
viability, T/C (second compound 0.0316 µM, first compound 0.316 µM): 18.5%
viability, T/C (second compound 0.0316 µM, first compound 1 µM): 14.2%
viability, T/C (second compound 0.0316 µM, first compound 3.16 µM): 14.7%
viability, T/C (second compound 0.0316 µM, first compound 10 µM): 19%
viability, T/C (second compound 0.1 µM, first compound 0.0316 µM): 53.3%
viability, T/C (second compound 0.1 µM, first compound 0.1 µM): 24.9%
viability, T/C (second compound 0.1 µM, first compound 0.316 µM): 17.8%
viability, T/C (second compound 0.1 µM, first compound 1 µM): 21.1%
viability, T/C (second compound 0.1 µM, first compound 3.16 µM): 18.1%
viability, T/C (second compound 0.1 µM, first compound 10 µM): 23.2%
viability, T/C (second compound 0.316 µM, first compound 0.0316 µM): 40.1%
viability, T/C (second compound 0.316 µM, first compound 0.1 µM): 25.9%
viability, T/C (second compound 0.316 µM, first compound 0.316 µM): 25.2%
viability, T/C (second compound 0.316 µM, first compound 1 µM): 21.2%
viability, T/C (second compound 0.316 µM, first compound 3.16 µM): 20.1%
viability, T/C (second compound 0.316 µM, first compound 10 µM): 22.8%
viability, T/C (second compound 1 µM, first compound 0.0316 µM): 35%
viability, T/C (second compound 1 µM, first compound 0.1 µM): 24.3%
viability, T/C (second compound 1 µM, first compound 0.316 µM): 26.8%
viability, T/C (second compound 1 µM, first compound 1 µM): 28.2%
viability, T/C (second compound 1 µM, first compound 3.16 µM): 31%
viability, T/C (second compound 1 µM, first compound 10 µM): 32.1%
viability, T/C (second compound 3.16 µM, first compound 0.0316 µM): 30.1%
viability, T/C (second compound 3.16 µM, first compound 0.1 µM): 23.1%
viability, T/C (second compound 3.16 µM, first compound 0.316 µM): 24.4%
viability, T/C (second compound 3.16 µM, first compound 1 µM): 28.7%
viability, T/C (second compound 3.16 µM, first compound 3.16 µM): 28.2%
viability, T/C (second compound 3.16 µM, first compound 10 µM): 33.7%
viability, T/C (second compound 10 µM, first compound 0.0316 µM): 26.7%
viability, T/C (second compound 10 µM, first compound 0.1 µM): 23.3%
viability, T/C (second compound 10 µM, first compound 0.316 µM): 23.5%
viability, T/C (second compound 10 µM, first compound 1 µM): 23.3%
viability, T/C (second compound 10 µM, first compound 3.16 µM): 26%
viability, T/C (second compound 10 µM, first compound 10 µM): 29.6%
